Entries after “also recorded” stand apart in the source; their conditions may differ.
Test system: ISO50 (Isolation number 50) colorectal cancer organoids
Experiment: Drug titration assay on colorectal cancer organoids cultured in a fed-plate bioreactor (confocal imaging, morphometric analysis)
Assay type: cell-based
Conditions: 5 days
Method: ISO50 (Isolation number 50) colorectal cancer organoids were cultured in a fed-plate bioreactor for 3 days, recovered from the MATRIGEL™ and stored frozen at −80° C. They were subsequently revived and used to seed a 384-well plate at a density of 350 organoids per well in 12 μl MATRIGEL™. The organoids were fed with 25 μl growth medium containing 0-2.5 μM MK1775, a WEE1 inhibitor (8 replicates). After 5 days, the organoids were fixed and stained with Hoechst (blue fluorescent stain specific for DNA i.e. nuclei of eukaryotic cells) and phalloidin (pink stain for F-actin). […] The actin filaments are spread throughout the structures, but are more concentrated in the lumen, in the centre of the organoid. Representative organoids are pictured from selected wells at each concentration. The overall shape of organoids in an untreated culture, or at low concentrations of inhibitor, can vary from round and cyst-like to convoluted and branched. […] Morphometric analysis of over 1000 parameters of the organoids confirmed the observations of toxicity.

## C=CCn1c(=O)c2cnc(Nc3ccc(N4CCN(C)CC4)cc3)nc2n1-c1cccc(C(C)(C)O)n1 [MK1775]
0-2.5 μM in growth medium, 384-well plate, 350 organoids per well, 8 replicates, FIG. 3A
  Organoid morphology (confocal imaging, Hoechst and phalloidin staining): cells are shed from the outer layer of the organoid, leading to a loss in complexity and a decrease in the overall size; also recorded: cells are shed from the outer layer of the organoid, leading to a loss of complexity and a decrease in the overall size
0-2.5 μM, FIG. 3B
  Apoptotic nuclei (morphometric analysis): increase with drug concentration
  Nuclei roundness (due to swelling before apoptosis; morphometric analysis): increase with drug concentration
  Organoid size (morphometric analysis): decreases with increasing concentrations of inhibitor
